Consider three compounds from ChEMBL document CHEMBL3588755, “hERG Channel Inhibitory Daphnane Diterpenoid Orthoesters and Polycephalones A and B with Unprecedented Skeletons from Gnidia polycephala” (J Nat Prod, 2015).

Usually inhibition stands for the change of the read-out against control, counted positive when it falls.

One data set concerns the target hERG (KCNH2) (Homo sapiens, UniProt Q12809). The experiment in a line: Inhibition of human ERG expressed in Xenopus laevis oocytes at 100 uM incubated for 3 mins at holding potential of -100 mV followed by depolarization to +20 mV and repolarization to -50 mV by two-microelectrode voltage clamp assay. Type of data set: cell-based. The note with it: Xenopus laevis oocytes expressing human ERG.

Data set [1] is described as follows: Retention time of the compound by HPLC method. Format: physicochemical.

Chain of hERG (KCNH2) (Q12809 whole entry): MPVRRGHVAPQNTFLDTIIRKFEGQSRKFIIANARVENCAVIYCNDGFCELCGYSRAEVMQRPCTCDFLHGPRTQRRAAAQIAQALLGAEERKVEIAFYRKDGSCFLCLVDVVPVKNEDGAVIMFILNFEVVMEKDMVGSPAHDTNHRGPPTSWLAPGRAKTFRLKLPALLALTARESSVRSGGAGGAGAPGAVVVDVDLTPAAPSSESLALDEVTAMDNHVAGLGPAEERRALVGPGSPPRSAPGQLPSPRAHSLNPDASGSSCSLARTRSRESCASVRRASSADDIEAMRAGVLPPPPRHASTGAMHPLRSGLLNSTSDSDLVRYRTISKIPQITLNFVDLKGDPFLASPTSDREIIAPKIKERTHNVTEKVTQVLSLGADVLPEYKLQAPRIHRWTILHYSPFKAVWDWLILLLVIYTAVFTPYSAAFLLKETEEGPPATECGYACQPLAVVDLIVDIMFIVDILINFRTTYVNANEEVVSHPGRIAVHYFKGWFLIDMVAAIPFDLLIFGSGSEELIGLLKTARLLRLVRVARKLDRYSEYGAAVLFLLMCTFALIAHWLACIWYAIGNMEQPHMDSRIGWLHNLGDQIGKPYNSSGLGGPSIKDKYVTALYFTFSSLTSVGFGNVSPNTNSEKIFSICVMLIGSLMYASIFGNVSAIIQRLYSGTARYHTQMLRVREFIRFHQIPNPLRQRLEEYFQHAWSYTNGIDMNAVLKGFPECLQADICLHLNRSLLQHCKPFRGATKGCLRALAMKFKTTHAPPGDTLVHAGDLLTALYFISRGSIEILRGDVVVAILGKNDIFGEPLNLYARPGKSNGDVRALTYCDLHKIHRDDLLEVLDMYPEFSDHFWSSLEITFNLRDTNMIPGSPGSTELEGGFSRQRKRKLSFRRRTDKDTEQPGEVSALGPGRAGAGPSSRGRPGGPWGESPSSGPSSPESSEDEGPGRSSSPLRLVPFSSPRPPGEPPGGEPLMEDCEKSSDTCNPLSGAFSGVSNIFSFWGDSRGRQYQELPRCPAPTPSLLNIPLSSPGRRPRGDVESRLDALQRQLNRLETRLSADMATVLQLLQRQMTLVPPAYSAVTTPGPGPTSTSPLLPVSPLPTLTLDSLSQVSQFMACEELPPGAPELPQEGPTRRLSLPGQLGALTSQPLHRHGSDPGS

In turn, `C=C(C)[C@]12OC3(/C=C\C=C/CCCCC)O[C@@H]1[C@@H]1[C@@H]4O[C@]4(CO)[C@@H](O)[C@]4(O)C(=O)C(C)=C[C@H]4[C@@]1(O3)[C@H](C)[C@H]2OC(=O)c1ccccc1` showed an inhibition at 0.05 h, 100 µM at hERG (KCNH2) of 42.5%. This compound came in with a Retention_time in data set [1] of 23.5 min.
On to `C=C(C)[C@]12OC3(/C=C/C=C/CCCCC)O[C@@H]1[C@@H]1[C@@H]4O[C@]4(CO)[C@@H](O)[C@]4(O)C(=O)C(C)=C[C@H]4[C@@]1(O3)[C@H](C)[C@H]2OC(=O)c1ccccc1`, for which the inhibition at 0.05 h, 100 µM against hERG (KCNH2) turned out to be 51.3%. Moreover, the Retention_time in data set [1] stood at 25.5 min.
Compound `C=C(C)[C@@]12C[C@@H](C)[C@@]34OC(/C=C\C=C/CCCCC)(O[C@@H]1[C@@H]3[C@@H]1O[C@]1(CO)[C@@H](O)[C@]1(O)C(=O)C(C)=C[C@H]14)O2` showed an inhibition at 0.05 h, 100 µM against hERG (KCNH2) of 55.4%. Besides, the Retention_time in data set [1] amounted to 18.9 min.
